Results from US20240425457A1, “COMPOSITIONS AND METHODS FOR SUPPRESSING AND/OR TREATING METABOLIC DISEASES AND/OR A CLINICAL CONDITION THEREOF” (CK Biotech Inc., priority 2018, published 2024).
Entries after “also recorded” stand apart in the source; their conditions may differ.

Legend:
[1] = test system: MCD-induced NASH mice; test: MCD diet-induced NASH mice; type: in vivo; details: MCD diet 7 weeks; for hepatosteatosis (H&E): then 25 mg/kg daily oral gavage 3 weeks
Protocol: NASH study. Eight-week-old wild-type male C57BL/6N mice (KOATECH, Seoul, Korea) were fed on the methionine-choline deficient (MCD) diet for 7 weeks, followed by treatment with vehicle, A3334, A3051, or I3O of (25 mg kg^−1) sitagliptin (25 mg kg^−1) for another 3 weeks via daily oral gavage.
Collagen staining. 4 µm-liver tissues sections were stained using two common collagen staining methods. For Masson's trichrome staining, slides were fixed in Bouin's solution for 1 h. After incubation in Weigert's iron hematoxylin solution for 10 min, the slides were stained with Biebrich Scarlet-Acid Fuchsin and Aniline blue for 5 min. The collagen fibers were stained blue and the nuclei were stained black. For picrosirius red staining, sections were stained with Weigert's solution for 8 min and picrosirius red for 1 h. The collagen fibers were stained red with blue nuclei.

[2] = test system: HFD-fed mice; test: HFD-induced obesity/diabetes mice, 5-day oral courses at weeks 8/9 and 12; type: in vivo; details: for fasting glucose level: A3334, A3051, I3O 25, sitagliptin 50, metformin 100 mg/kg
Source text: Animals. The generation of Cxxc5^−/− mice has been described previously. Cxxc5 heterozygous mice were intercrossed for four generations to obtain littermate wild-type and Cxxc5^−/− mice and were maintained on a C57BL/6 background. Six-week-old Cxxc5^+/+ and Cxxc5^−/− mice were fed HFD for 8 weeks. Wild-type male C57BL/6 mice (KOATECH, Seoul, Korea) were fed HFD consisting of 60% calories from fat (Research Diet, D12492) for 8 weeks. To validate that the insulin resistance mouse model was successfully established, fasting glucose levels were assessed with a One Touch Ultra glucometer (LifeScan). Subsequently, each HFD-fed mouse with a fasting glucose level higher than 16.7 mmol/L was orally administered A3334 (25 mg kg^−1), sitagliptin (50 mg kg^−1), or metformin (100 mg kg^−1) each day for 5 days at weeks 8 and 12. After the removal of the drugs, mice were maintained for 3 weeks on the HFD. To monitor pancreas regeneration, six-week-old Cxxc5^+/+ and Cxxc5^−/− mice were fed an HFD as above. After dietary treatment for 4 weeks, the mice were intraperitoneally injected with STZ (50 mg/kg/d) for 1 week and the control group were injected with saline. After 2 weeks, Cxxc5^+/+ mice were administered A3334 (25 mg kg^−1) and sitagliptin (50 mg kg^−1) per day by oral gavage for 4 weeks. For GTT or ITT, mice were injected with D-glucose (1.5 g/kg body weight) after overnight starvation or human insulin (0.75 units/kg body weight) after 4 h starvation, respectively. Tail blood was drawn at 0, 15, 30, 60, 120, 180 min intervals and blood glucose level was measured with a One Touch Ultra glucometer. All mice were maintained under temperature-controlled and light-controlled (standard 12 h light/dark cycle) conditions and provided with food and water ad libitum. All protocols were reviewed and approved by the Institutional Review Board of Severance Hospital, Yonsei University College of Medicine (09-013).
Blood chemistry. Total blood of mice was collected by cardiac puncture after fasting. The blood was allowed to clot for 30 min and was then centrifuged for 10 min at 1,000×g to obtain supernatant to measure metabolic parameters. ELISA assay kits were used to assess serum insulin (Millipore), serum FFA (Cayman Chemical), serum adiponectin (ABclonal). The insulin function test was evaluated by HOMA-IR and was calculated as fasting plasma glucose (m mol/l)×fasting serum insulin (mU/l)/22.5. Serum chemistry variables included total cholesterol, HDL-cholesterol, glucose, TG, ALT, AST, ALP, Ca, and Mg concentration. The calibration of serum parameters was performed using the quality control card supplied with the FUJI DRI-CHEM slides whenever slides from a new lot were used. […]
Hematoxylin and eosin (H&E) staining. Dissected tissues were fixed in 4% neutral paraformaldehyde and embedded in paraffin. The paraffin sections were cut at a thickness of 4 μm and subjected to H&E staining. The adipocyte cell size was measured in 20 randomly chosen microscopic areas from 3 independent animals using a Nikon bright-field optical microscope (Nikon TE-2000U). The average adipocyte size was determined using Image J software. […]
Metabolic monitoring and body composition. Metabolic performance (energy intake and energy expenditure) was studied using a PHENOMASTER automated combined indirect calorimetry system (TSE system GmBH). The mice were first acclimated for 24 h in a metabolic chamber and were provided with food and water. They were then subsequently evaluated for 3 days to measure oxygen consumption (VO2), carbon dioxide production (VCO2), ambulatory counts, and respiratory exchange ratio. An LF50 body composition analyzer (Bruker) was used to determine body composition (lean body mass and total body fat) of the mice. The temperature for these studies remained at 22° C., with a 12 h light/dark cycle. Standard in-house software was used for energy expenditure.
Quantitative real-time polymerase chain reaction (PCR). […]

[3] = test system: normal (Chow) mice; test: normal diet (NCD/Chow) fed mice treated with A3334; type: in vivo
Source text: No effect of A3334 on mice fed with normal diet. To evaluate whether the A3334 treatment would have any effect on normal diet fed mice, C57BL/6N mice were fed normal diet for 16 weeks with or without oral administration of 25 mpk A3334.

[4] = test system: Wnt/β-catenin signaling; test: Wnt/β-catenin signaling (TOPFlash) reporter luciferase assay in HEK293-TOP cells; type: cell-based
Protocol: Luciferase reporter assay. HEK293-TOP cells were seeded in 24-well plates. Cells were treated with A3334 at a concentration of 1, 5, and 10 μM for 24 h. Total cell lysates were extracted with 35 μl of 5× Reporter Lysis Buffer per well according to the manufacturer's instructions (Promega). A total of 35 μl of luciferin was added and luciferase activity was measured using a Fluorstar Optima microplate reader.
Wnt/β-catenin signaling reporter luciferase assay. HEK293-TOP cells were seeded were seeded in 96-well plates at a density of 2.5×10^4 cells per well. Cells were treated with individual chemicals at a concentration of 1, 5, 10 µM for 24 h. Total cell lysates were extracted with 25 µl of 5× Reporter Lysis Buffer per well according to the manufacturer's instruction (Promega, Madison, WI). Luciferin (25 µl) was added and luciferase activity was measured using FLUOSTAR (BMG labtech, Offenburg, Germany).

[5] = HFD mice, p.o. daily 5 days at weeks 8/9 and 12
[6] = HFD mice, 5-day courses at weeks 8/9 and 12, A3334 25 mg/kg, 25 mg/kg

CO/N=C1/C(=C2/C(=O)Nc3cc(Cl)c(Cl)cc32)Nc2ccccc21 [Compound A3051, 5,6-dichloroindirubin-3′-methoxime]
hepatosteatosis (H&E) [1]: also reduced hepatosteatosis, but revealed only marginal effects compared to A3334 | fasting glucose level [2, 5]: also reduced fasting glucose. However, effects of A3051 and I3O is similar to or little bit weaker than SITA

COc1ccc2c(c1)/C(=C1/Nc3ccccc3/C1=N\O)C(=O)N2 [Compound A3334, 5-Methoxyindirubin-3′-oxime]
ALT and AST levels ([1]; then 25 mg/kg daily 3 weeks): mostly abolished by A3334 treatment | FFAs and TG in serum ([1]; then 25 mg/kg daily 3 weeks): mostly abolished with A3334 treatment | fibrosis, histological analyses ([1]; then 25 mg/kg daily 3 weeks): improvement of the MCD-diet induced fibrosis by A3334 | liver mRNA of pro-inflammation, FA oxidation, apoptosis and fibrosis markers ([1]; then 25 mg/kg daily 3 weeks): significantly reduced by A3334 | hepatosteatosis (H&E) [1]: significantly abolished by A3334 co-treatment | effect on normal diet fed mice (fat size, organ weight, ALT and AST) ([3]; 25 mg/kg/d p.o.): has no effect in NCD mice; also recorded: did not have any effect on normal (Chow) mice; also recorded: no observation of metabolic disease phenotypes; also recorded: did not show any differences on size of fats (FIG. 36A-36B), weight of organs (FIG. 36D), and level of ALT and AST in blood serum | histology of normal diet fed mice ([3]; 25 mpk p.o.): no histological differences were observed | thermogenesis and beige-fat markers in scWAT ([2]; HFD (DIO) mice): exhibited elevated thermogenesis and beige-fat markers | Ca++ and Mg++ levels in serum ([2]; HFD mice): without any effect on Ca^++ and Mg^++ imbalance; also recorded: not significantly changed | F4/80+ and CD11b+ cells / inflammation in adipose tissue ([2]; HFD mice): the populations of F4/80^+ and CD11b^+ cells decreased; also recorded: also suppressed by A3334 | energy expenditure and activity ([2]; HFD mice): increases energy expenditure via enhancing brown- and beige-fat activation; also recorded: higher energy expenditure and more active behavior than vehicle-treated mice | mRNA of M1 and M2 macrophage marker genes in epiWAT ([2]; HFD mice): decreased and increased in the epiWAT of A3334-treated mice, respectively | respiratory exchange ratio ([2]; HFD mice): lower respiratory exchange ratio | serum ALT, AST, FFA (and TG) ([2]; HFD mice): mostly suppressed by the A3334 treatment; also recorded: reduced by A3334; also recorded: also lowered by A3334; also recorded: significantly lowered by A3334 | transition of brown adipocytes to white adipocytes, UCP1 and GLUT4 ([2]; HFD mice): suppressed by the A3334 treatment together with recovery of the levels of UCP1 and GLUT4 | serum adiponectin level ([2]; HFD mice (FIG. 38G)): increased by A3334 | glucose tolerance and insulin tolerance (GTT/ITT) [2, 6]: significantly improved the systemic glucose tolerance and insulin resistance; also recorded: most significantly reduced by A3334 | insulin resistance (fasting insulin, HOMA-IR) [2, 6]: improves diet-induced obesity and insulin resistance; also recorded: improved insulin resistance; also recorded: reduced by A3334; also recorded: mostly resolved by A3334 administration | body weight and food intake ([2]; HFD mice, A3334 25 mg/kg): the body weights were decreased without significant changes in food intake | fat mass (body composition, tissue weights) ([2]; HFD mice, A3334 25 mg/kg): reduction of overall fat mass | levels of GTT/ITT, total cholesterol, fasting glucose, triglyceride, FFAs in serum ([2]; HFD mice, A3334 25, metformin 100, sitagliptin 50 mpk (FIG. 38B-38F)): most significantly reduced by A3334 | hepatic steatosis (lipid droplets, fatty liver, hepatic TG) ([2]; HFD mice, H&E, Oil Red O): did not form lipid droplets with a reduction in the hepatic TG levels; also recorded: totally abolished by the A3334 treatment; also recorded: suppressed by A3334 | Cxxc5 and β-catenin expression in epiWAT ([2]; HFD mice, IHC): Cxxc5 expression was mostly abolished and only a small amount remained in the nucleus with the elevation of nuclear β-catenin | UCP1 protein level in BAT and scWAT ([2]; HFD mice, IHC): the protein level increment of the major thermogenin uncoupling protein 1 (UCP1) was confirmed in BAT and scWAT | crown-like structures and adipocyte size in white adipose tissue ([2]; HFD mice, epiWAT/WAT, H&E): significantly decreased the number of CLSs as well as the size of adipocytes; also recorded: suppressed HFD-induced increase in cell size and the expression of PPARγ and C/EBPα; also recorded: inhibited by the A3334 treatment | oxygen consumption (VO2) and carbon dioxide production (VCO2) ([2]; HFD mice, light and dark periods): consumed higher oxygen (VO2) and exhaled more carbon dioxide (VCO2) | Wnt/β-catenin signaling target genes in liver ([2]; HFD mice, mRNA): induction of Wnt/β-catenin signaling target genes; also recorded: significantly increased by A3334 treatment | Wnt/β-catenin target genes and lipogenesis/inflammation genes in white adipose tissue ([2]; HFD mice, mRNA): upregulated with the regression of the lipogenesis genes; also recorded: significantly lowered by the A3334 treatment | lipogenesis and gluconeogenesis genes in liver ([2]; HFD mice, mRNA): repressed in the liver of A3334-treated mice; also recorded: significantly lowered by the A3334 treatment; also recorded: reduced by both A3334 and SITA, but A3334 showed better effectiveness | thermogenesis / mitochondria biogenesis markers in BAT ([2]; HFD mice, mRNA): significantly elevated expression levels of the key thermogenesis markers; also recorded: all increased by the A3334 treatment | persistence of fasting glucose control after end of treatment ([2]; HFD mice, p.o. daily 5 days at weeks 8/9 and 12, A3334 25, sitagliptin 50, metformin 100 mg/kg): prolonged effectiveness for the control of fasting glucose levels; also recorded: unexpected long-lasting glucose controlling effect; also recorded: long lasting effect in suppression of fast glucose level; also recorded: most significant and long last effects on fasting glucose control effect | fasting glucose level [2, 5]: lower in the A3334 treatment than in the sitagliptin and metformin treatment groups; also recorded: reduced similarly by treatment with all of these compounds at initial applications | endocrine and metabolic parameters: total cholesterol, HDL-cholesterol, TG, adiponectin ([2]; HFD mice, plasma, overnight fasted): much better effects than sitagliptin- and metformin-treated mice | secretory proteins/adipokines, protein chip ([2]; HFD mice, serum): decreased the expression levels of various secretory proteins | Wnt/β-catenin (TOPFlash) reporter activity [4]: dose-dependent increment of the TOPFlash reporter activity
